Laboratory results taken from the supplement of paper PMC8882468.

These molecules were tested on HCI-012 (organoid from a breast cancer xenograft) (assay: CTG-3D luminescence at 96 h relative to day-0 seeding control (ratio to day 0); higher = more growth / less cytotoxicity; PDxO 3D drug screen (set 2), 96 h, CTG-3D normalised to day-0 seeding control.). Settings: 0.005 µM; days in culture: 214.

First: CCOc1ccn(-c2ccc(F)cc2)c(=O)c1C(=O)Nc1ccc(Oc2ccnc(N)c2Cl)c(F)c1 [ASLAN002]
Second: O=C(c1cc(Cc2n[nH]c(=O)c3ccccc23)ccc1F)N1CCN(C(=O)C2CC2)CC1 [olaparib]
The “CTG-3D luminescence at 96 h” value of the first is lower: 1.41 for the first, 2.09 for the second.

Going from `C[C@@H](Nc1cc(F)cc(F)c1)c1cc(C(=O)N(C)C)cc2c(=O)cc(N3CCOCC3)oc12` [AZD-8186] to `CC(=O)c1c(C)c2cnc(Nc3ccc(N4CCNCC4)cn3)nc2n(C2CCCC2)c1=O` [palbociclib], the “CTG-3D luminescence at 96 h” value falls from 2.36 to 1.58.

In the case of `COc1cccc2c1C(=O)c1c(O)c3c(c(O)c1C2=O)C[C@@](O)(C(=O)CO)C[C@@H]3O[C@H]1C[C@H](N)[C@@H](O)[C@H](C)O1` [epirubicin], the “CTG-3D luminescence at 96 h” value is reported as 1.28.

Same assay, conditions: 0.005 µM; days in culture: 243

Going from `CCOc1ccn(-c2ccc(F)cc2)c(=O)c1C(=O)Nc1ccc(Oc2ccnc(N)c2Cl)c(F)c1` [ASLAN002] to `O=C(c1cc(Cc2n[nH]c(=O)c3ccccc23)ccc1F)N1CCN(C(=O)C2CC2)CC1` [olaparib], the “CTG-3D luminescence at 96 h” value falls from 1.9 to 1.86.

Going from `C[C@@H](Nc1cc(F)cc(F)c1)c1cc(C(=O)N(C)C)cc2c(=O)cc(N3CCOCC3)oc12` [AZD-8186] to `CC(=O)c1c(C)c2cnc(Nc3ccc(N4CCNCC4)cn3)nc2n(C2CCCC2)c1=O` [palbociclib], the “CTG-3D luminescence at 96 h” value falls from 1.8 to 1.58.

In the case of `COc1cccc2c1C(=O)c1c(O)c3c(c(O)c1C2=O)C[C@@](O)(C(=O)CO)C[C@@H]3O[C@H]1C[C@H](N)[C@@H](O)[C@H](C)O1` [epirubicin], the “CTG-3D luminescence at 96 h” value is reported as 1.74.

Same assay, conditions: 0.005 µM; days in culture: 256

Going from `CCOc1ccn(-c2ccc(F)cc2)c(=O)c1C(=O)Nc1ccc(Oc2ccnc(N)c2Cl)c(F)c1` [ASLAN002] to `O=C(c1cc(Cc2n[nH]c(=O)c3ccccc23)ccc1F)N1CCN(C(=O)C2CC2)CC1` [olaparib], the “CTG-3D luminescence at 96 h” value rises from 1.8 to 2.13.

Going from `C[C@@H](Nc1cc(F)cc(F)c1)c1cc(C(=O)N(C)C)cc2c(=O)cc(N3CCOCC3)oc12` [AZD-8186] to `CC(=O)c1c(C)c2cnc(Nc3ccc(N4CCNCC4)cn3)nc2n(C2CCCC2)c1=O` [palbociclib], the “CTG-3D luminescence at 96 h” value falls from 2.12 to 1.63.

For `COc1cccc2c1C(=O)c1c(O)c3c(c(O)c1C2=O)C[C@@](O)(C(=O)CO)C[C@@H]3O[C@H]1C[C@H](N)[C@@H](O)[C@H](C)O1` [epirubicin], the “CTG-3D luminescence at 96 h” value was 1.73.

Same assay, conditions: 0.005 µM; days in culture: 284

Going from `CCOc1ccn(-c2ccc(F)cc2)c(=O)c1C(=O)Nc1ccc(Oc2ccnc(N)c2Cl)c(F)c1` [ASLAN002] to `O=C(c1cc(Cc2n[nH]c(=O)c3ccccc23)ccc1F)N1CCN(C(=O)C2CC2)CC1` [olaparib], the “CTG-3D luminescence at 96 h” value falls from 1.82 to 1.42.

First: C[C@@H](Nc1cc(F)cc(F)c1)c1cc(C(=O)N(C)C)cc2c(=O)cc(N3CCOCC3)oc12 [AZD-8186]
Second: CC(=O)c1c(C)c2cnc(Nc3ccc(N4CCNCC4)cn3)nc2n(C2CCCC2)c1=O [palbociclib]
The “CTG-3D luminescence at 96 h” value of the first is higher: 2.11 for the first, 2.04 for the second.

In the case of `COc1cccc2c1C(=O)c1c(O)c3c(c(O)c1C2=O)C[C@@](O)(C(=O)CO)C[C@@H]3O[C@H]1C[C@H](N)[C@@H](O)[C@H](C)O1` [epirubicin], the “CTG-3D luminescence at 96 h” value is reported as 1.39.

Same assay, conditions: 0.1 µM; days in culture: 214

Going from `CCOc1ccn(-c2ccc(F)cc2)c(=O)c1C(=O)Nc1ccc(Oc2ccnc(N)c2Cl)c(F)c1` [ASLAN002] to `O=C(c1cc(Cc2n[nH]c(=O)c3ccccc23)ccc1F)N1CCN(C(=O)C2CC2)CC1` [olaparib], the “CTG-3D luminescence at 96 h” value rises from 1.72 to 1.89.

First: C[C@@H](Nc1cc(F)cc(F)c1)c1cc(C(=O)N(C)C)cc2c(=O)cc(N3CCOCC3)oc12 [AZD-8186]
Second: CC(=O)c1c(C)c2cnc(Nc3ccc(N4CCNCC4)cn3)nc2n(C2CCCC2)c1=O [palbociclib]
The “CTG-3D luminescence at 96 h” value of the first is higher: 2.15 for the first, 1.96 for the second.

With `COc1cccc2c1C(=O)c1c(O)c3c(c(O)c1C2=O)C[C@@](O)(C(=O)CO)C[C@@H]3O[C@H]1C[C@H](N)[C@@H](O)[C@H](C)O1` [epirubicin] the “CTG-3D luminescence at 96 h” value was 0.214.

Same assay, conditions: 0.1 µM; days in culture: 243

First: CCOc1ccn(-c2ccc(F)cc2)c(=O)c1C(=O)Nc1ccc(Oc2ccnc(N)c2Cl)c(F)c1 [ASLAN002]
Second: O=C(c1cc(Cc2n[nH]c(=O)c3ccccc23)ccc1F)N1CCN(C(=O)C2CC2)CC1 [olaparib]
The “CTG-3D luminescence at 96 h” value of the first is higher: 2.45 for the first, 2.25 for the second.

First: C[C@@H](Nc1cc(F)cc(F)c1)c1cc(C(=O)N(C)C)cc2c(=O)cc(N3CCOCC3)oc12 [AZD-8186]
Second: CC(=O)c1c(C)c2cnc(Nc3ccc(N4CCNCC4)cn3)nc2n(C2CCCC2)c1=O [palbociclib]
The “CTG-3D luminescence at 96 h” value of the first is lower: 2.35 for the first, 2.71 for the second.

For `COc1cccc2c1C(=O)c1c(O)c3c(c(O)c1C2=O)C[C@@](O)(C(=O)CO)C[C@@H]3O[C@H]1C[C@H](N)[C@@H](O)[C@H](C)O1` [epirubicin], the “CTG-3D luminescence at 96 h” value was 0.228.

Same assay, conditions: 0.1 µM; days in culture: 256

Compared with `CCOc1ccn(-c2ccc(F)cc2)c(=O)c1C(=O)Nc1ccc(Oc2ccnc(N)c2Cl)c(F)c1` [ASLAN002], `O=C(c1cc(Cc2n[nH]c(=O)c3ccccc23)ccc1F)N1CCN(C(=O)C2CC2)CC1` [olaparib] is higher in “CTG-3D luminescence at 96 h” value: 2.77 for the first, 3.12 for the second.

Compared with `C[C@@H](Nc1cc(F)cc(F)c1)c1cc(C(=O)N(C)C)cc2c(=O)cc(N3CCOCC3)oc12` [AZD-8186], `CC(=O)c1c(C)c2cnc(Nc3ccc(N4CCNCC4)cn3)nc2n(C2CCCC2)c1=O` [palbociclib] is lower in “CTG-3D luminescence at 96 h” value: 3.26 for the first, 3.14 for the second.

With `COc1cccc2c1C(=O)c1c(O)c3c(c(O)c1C2=O)C[C@@](O)(C(=O)CO)C[C@@H]3O[C@H]1C[C@H](N)[C@@H](O)[C@H](C)O1` [epirubicin] the “CTG-3D luminescence at 96 h” value was 0.43.

Same assay, conditions: 0.1 µM; days in culture: 284

Going from `CCOc1ccn(-c2ccc(F)cc2)c(=O)c1C(=O)Nc1ccc(Oc2ccnc(N)c2Cl)c(F)c1` [ASLAN002] to `O=C(c1cc(Cc2n[nH]c(=O)c3ccccc23)ccc1F)N1CCN(C(=O)C2CC2)CC1` [olaparib], the “CTG-3D luminescence at 96 h” value falls from 2.49 to 2.17.

Going from `C[C@@H](Nc1cc(F)cc(F)c1)c1cc(C(=O)N(C)C)cc2c(=O)cc(N3CCOCC3)oc12` [AZD-8186] to `CC(=O)c1c(C)c2cnc(Nc3ccc(N4CCNCC4)cn3)nc2n(C2CCCC2)c1=O` [palbociclib], the “CTG-3D luminescence at 96 h” value rises from 2.5 to 2.56.

In the case of `COc1cccc2c1C(=O)c1c(O)c3c(c(O)c1C2=O)C[C@@](O)(C(=O)CO)C[C@@H]3O[C@H]1C[C@H](N)[C@@H](O)[C@H](C)O1` [epirubicin], the “CTG-3D luminescence at 96 h” value is reported as 0.413.
